Our source for the EC50 values is ChEMBL document CHEMBL5727878, “Triazole furan compounds as agonists of the APJ receptor” (2020).

The structures appear in SMILES notation.

The target in the test is T1, Apelin receptor (Homo sapiens, UniProt P35414).
T1 sequence (P35414 whole entry): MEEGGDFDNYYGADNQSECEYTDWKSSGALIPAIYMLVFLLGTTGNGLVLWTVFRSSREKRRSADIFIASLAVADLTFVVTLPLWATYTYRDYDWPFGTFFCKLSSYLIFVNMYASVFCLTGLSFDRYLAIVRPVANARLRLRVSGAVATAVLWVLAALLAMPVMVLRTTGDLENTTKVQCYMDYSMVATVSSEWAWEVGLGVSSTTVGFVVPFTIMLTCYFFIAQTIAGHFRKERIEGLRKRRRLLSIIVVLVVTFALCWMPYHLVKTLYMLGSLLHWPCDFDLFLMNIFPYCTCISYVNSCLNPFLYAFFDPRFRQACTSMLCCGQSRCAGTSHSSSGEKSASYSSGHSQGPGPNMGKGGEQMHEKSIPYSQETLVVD
Kind of test: GTPγS Binding: The human APJ receptor was cloned by polymerase chain reaction and the gene encoding the receptor was subcloned in pFLAG-CMV-3 expression vector (Sigma, Saint Louis, Mo. USA) in-house at Amgen. A GTPγS binding assay was performed on membranes prepared from CHO cells stably expressing human APJ receptor. The optimum experimental conditions for the concentrations of GDP, MgCl2, and NaCl in the assay buffer were initially determined. The assay was performed in assay buffer [20 mM HEPES, pH 7.5, 5 mM MgCl2, and 0.1% (w/v) BSA with 200 mM NaCl, 3 μM GDP] and membranes expressing human APJ receptor/well along with WGA PS beads. The reaction was initiated by addition of 0.2 nM [35S]GTPγS in the absence or presence of various ligands and incubated at RT for 90 min. Nonspecific binding was determined in the presence of 100 μM GTPγS and was always less than 0.2% of total binding. For orientation: GTPγS resists hydrolysis and so accumulates on activated G proteins.

In the case of `COc1cccc(OC)c1-n1c(NS(=O)(=O)[C@@H](C)[C@H](O)c2cc3n(n2)CCCO3)nnc1-c1ccc(C)o1` (single isomer, unassigned), the EC50 – broadly, the concentration at which the effect is half-maximal – stood at 1200 pM.
On to `COc1cccc(OC)c1-n1c(NS(=O)(=O)[C@H]2C[C@@H](C(=O)N3CCC3)CN(c3ncc(F)cn3)C2)nnc1-c1ccc(C)o1` (mixture of isomers), for which the EC50 amounted to 350 pM.
As for `COc1cccc(OC)c1-n1c(NS(=O)(=O)CCc2ncc(Cl)cc2C2=CCN(C(C)=O)CC2)nnc1-c1ccco1`, the EC50 stood at 320 pM.
With `COc1cccc(OC)c1-n1c(NS(=O)(=O)CCN2C(=O)CCC[C@@H]2C)nnc1-c1ccco1` (single isomer, unassigned), the EC50 was determined as 1000 pM.
For the compound `COc1cnc([C@@H](O)[C@H](C)S(=O)(=O)Nc2nnc(-c3ccc(C)o3)n2-c2c(OC)cccc2OC)cn1` (mixture of isomers), the EC50 is 250 pM.
On to `COc1ncnc(OC)c1-n1c(NS(=O)(=O)[C@@H](C)Cc2ncc(F)cn2)nnc1-c1ccc(C)o1` (mixture of isomers), for which the EC50 was found to be 3000 pM.
